Laboratory results taken from patent US7125559B2, “Cosmetic or dermatological composition comprising a combination of an elastase inhibitor of the N-acylaminoamide family and at least one myorelaxing agent” (L'Oreal, priority 2001, dated 2006).

Columns and labels:
[1] = biological target: T1, human leukocyte elastase (HLE) (Homo sapiens, UniProt P08246); experiment: anti-elastase activity in vitro against human leukocyte elastase (HLE), substrate Me-OSAAPV-p-NA, spectrophotometry; type: biochemical
T1 sequence (P08246 30-267): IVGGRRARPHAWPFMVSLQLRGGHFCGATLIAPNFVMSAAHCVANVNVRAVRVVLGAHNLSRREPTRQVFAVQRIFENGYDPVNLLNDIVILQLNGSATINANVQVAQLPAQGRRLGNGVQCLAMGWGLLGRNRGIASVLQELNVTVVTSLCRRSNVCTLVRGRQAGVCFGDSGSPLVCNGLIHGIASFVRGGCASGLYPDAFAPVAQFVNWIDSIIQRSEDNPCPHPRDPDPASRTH
Procedure: The anti-elastase activity of compounds according to the invention was determined in vitro against human leukocyte elastase (HLE)
(§1) The test was performed in the following manner:
A substrate Me-OSAAPV-p-NA (methyl-O-succinate alanine alanine proline valine-p-nitroanilide) to which is added the HLE (40 milliunits per ml) and 0.1% of the test compound is incubated at 37° C. for 60 minutes.
The % of inhibition of the elastase activity tested is then determined by spectrophotometry.
In the same manner the % of inhibition of the control elastase activity was determined for the compound A at different concentrations

[2] = system: surviving human skins treated with human leukocyte elastase (HLE); experiment: ex vivo activity on fresh sections of surviving human skins treated with HLE, morphometry of elastin fibres (Example 4); conditions: HLE 10 μg/ml + 0.1% test compound, 2 hours at 20° C.
Procedure: (§2) The ex vivo activity of the compound of Example 2 was evaluated on surviving human skins treated with human leukocyte elastase (HLE).
(§3) The test is performed in the following manner:
Fresh sections of human skins derived from 2 different donors are treated for 2 hours at 20° C. with 20 μl of buffer solution (pH 7.4) containing optionally 10 μg/ml of HLE and optionally 0.1% of the test compound, optionally previously dissolved in ethanol.
The elastin fibres are stained blue with (+) catechol and quantified morphometrically by computer-assisted image analysis. The percentage of mean dermal surface occupied by the elastin fibres is thus evaluated

[3] = system: surviving human skins treated with human leukocyte elastase (HLE); experiment: ex vivo activity on human skin fragments kept in survival 10 days with HLE, morphometry of elastin fibres (Example 5); conditions: three donors, mean; HLE 0.5 μg/ml + 5 μl compound at 0.2% in ethanol every two days, 10 days at 37° C.; HLE alone 5.1%, untreated 7.4%
Procedure: as §2, §1
(§4) Fragments of normal human skin derived from three different donors are deposited in inserts placed in culture wells. Culture medium supplemented with antibiotics is added to the bottom of the wells. Passage by slow diffusion occurs between the two compartments through the intermediary of a porous membrane (pore size: 12 μm).
(§5) The culture medium is renewed every three days.
Optionally 0.5 μg of HLE per ml of culture medium is added to the skin fragments.
5 μl of test compound previously dissolved at 0.2% by weight in ethanol are also added every two days.
The skins are maintained in survival for 10 days at 37° C.,
(§6) The elastin fibres are stained blue with (+) catechol and quantified morphometrically by computer-assisted image analysis. The mean percentage dermal surface area occupied by the elastin fibres was thus evaluated.

[4] = system: surviving human skins irradiated by UVA; experiment: activity on surviving human skins irradiated by UVA (8 J/cm2), morphometry of elastin fibres and collagen (Example 6); conditions: UVA 8 J/cm2 + 5 μl compound at 0.2% in ethanol every two days, 7 days at 37° C.
Procedure: The activity of the compound of Example 2 was evaluated on irradiated surviving human skins irradiated by UVA (8 J/cm2).
as §3
as §4, with “four” for “three”
as §5
Every two days 5 μl of the test compound previously dissolved at 0.2% in ethanol are added to the skin fragments.
The skins are maintained in survival for 7 days at 37° C.
The skins are irradiated once only at 8 J/cm2 (Vilbert-Lourmat RMX-3W lamp).
as §6

CCOC(=O)CNC(=O)C(C(C)C)N(Cc1ccccc1)C(=O)CP(=O)(OCC)OCC (stereo not shown) [Compound B, (2-{benzyl-[(diethoxy-phosphoryl)-acetyl]-amino}-3-methyl-butyrylamino) ethyl acetate]
% inhibition of elastase activity tested ([1]; compound concentration 0.1%, HLE 40 milliunits per ml, 37° C., 60 minutes): 17%

CC(=O)N(c1cccc(C(F)(F)F)c1)C(C(=O)NCC(=O)O)C(C)C (stereo not shown) [Compound A, {2-[acetyl-(3-trifluoromethyl-phenyl)-amino]-3-methyl-butyrylamino}acetic acid]
inhibition of the elastase activity (in words) ([1]; even at low concentration): strong inhibition | % surface occupied by elastin fibres ([2]; Skin 1, HLE alone 4.85%, untreated 12.7%): 13.95% | % surface occupied by elastin fibres ([2]; Skin 2, HLE alone 6.85%, untreated 15.25%): 11.85% | % surface occupied by elastin fibres [3]: 7.1% | Morphometric analysis of elastin fibres (superficial dermis) ([4]; UVA alone 3.9%, untreated 6.75%): 6.8% | Morphometric analysis of collagen (superficial dermis) ([4]; UVA alone 81%, untreated 87%): 92%
